Converted amounts (≈) assume the structure as drawn. Read-outs that look alike come from different tables or passages of the source.
Assays:
[1] = system: N. gonorrhoeae ATCC 49226; assay: Liquid broth MIC, N. gonorrhoeae ATCC 49226; format: cell-based; conditions: Neisseria gonorrhoeae, ATCC49226; N. gonorrhoeae ATCC 49226, liquid broth; read-out: Minimum Inhibitory Concentration, N. gonorrhoeae ATCC 49226
Protocol: (§1) Additional antibacterial testing of the series was performed in wild-type reference strains of N. gonorrhoeae (ATCC 49226, FA1090, WHO F and FA19). Liquid broth-based assays were used for antibacterial testing of PBP inhibitors in Neisseria gonorrhoeae. Briefly, cryo-preserved bacterial cultures of clinical strains are streaked for isolation on GC Base agar (BD #228950 at 36 g/L autoclaved at 121° C. for 20 minutes to sterilize) with 1% Kellogg's supplement (40 g glucose, 0.5 g glutamine, 0.05 g ferric nitrate and 2 mg cocarboxylase per 100 mL deionized water filter sterilized through 0.2 μm syringe filters). Following incubation at 36° C. and 5% CO2 to allow growth of colonies, strains are aseptically sub-cultured from original agar plate onto 3 agar plates per strain 24 hours before inoculum preparation. 2-fold serial dilutions of test compounds are conducted in a 96 well plate with a final volume of 150 μL per well at 4/3-fold the final desired concentration. For preparation of assay inoculum, a direct suspension is prepared by aseptically swabbing all colonies from sub-cultured agar plates into culture tubes containing 2 mL of fresh GC broth with […]. After the dilution plates are set up, direct suspensions are then diluted in a cuvette containing GC broth (15 g proteose peptone 43, 1 g corn starch, 4 g dipotassium phosphate, 1 g monopotassium phosphate and 5 g sodium chloride per liter of deionized water are mixed on a stir plate for 20 minutes, pH adjusted to 7.2+/−0.2 pH units with 1 N HCl, centrifuged at 10,000×g for 20 minutes to pellet undissolved corn starch and then autoclaved at 121° C. for 20 minutes to sterilize) and the optical density is measured at 600 nm. Inocula are diluted such that 50 μL of this culture in […] results in a starting bacterial concentration of 5×10^5 CFU/mL when added to the dilution plates. The plates are incubated 40-42 hours at 36° C. and 5% CO2. The MIC is read visually as the lowest concentration well with no bacterial growth.

E. coli 901C = assay: microbe, parasite or virus in culture; format: cell-based; conditions: Escherichia coli; hyper-permeable E. coli 901C, broth microdilution; read-out: MIC E. coli 901C
Procedure, shortened: (§2)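 Visual MIC readout after 16-20 h at 37° C in CLSI-format microdilution. Compounds tested as 2-fold series against a 5×10^5 CFU/mL inoculum in cation-supplemented Mueller-Hinton broth.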

K. pneumoniae UMM = assay: microbe, parasite or virus in culture; format: cell-based; conditions: Klebsiella pneumoniae; K. pneumoniae UMM producing SHV-5 and KPC-2; read-out: MIC K. pneumoniae UMM
Procedure, shortened: as §2

K. pneumoniae SI-117 = assay: microbe, parasite or virus in culture; format: cell-based; conditions: Klebsiella pneumoniae, SI117, read-out: MIC K. pneumoniae SI-117
Procedure, shortened: as §2

E. coli AG100A = assay: microbe, parasite or virus in culture; format: cell-based; conditions: Escherichia coli, read-out: MIC E. coli AG100A
Procedure, shortened: as §2

E. coli D22 = assay: microbe, parasite or virus in culture; format: cell-based; conditions: Escherichia coli; hyper-permeable E. coli D22, broth microdilution; read-out: MIC E. coli D22
Procedure, shortened: as §2

N. gonorrhoeae FA19 = assay: Liquid broth MIC, N. gonorrhoeae FA19; format: cell-based; conditions: Neisseria gonorrhoeae; N. gonorrhoeae FA19, liquid broth; read-out: Minimum Inhibitory Concentration, N. gonorrhoeae FA19
Protocol: as §1

E. coli ATCC 25922 = assay: Broth microdilution MIC, E. coli ATCC 25922; format: cell-based; conditions: Escherichia coli, ATCC25922; E. coli ATCC 25922, broth microdilution; read-out: MIC E. coli 25922
Procedure, shortened: as §2

N. gonorrhoeae WHO F = assay: Liquid broth MIC, N. gonorrhoeae WHO F; format: cell-based; conditions: Neisseria gonorrhoeae; N. gonorrhoeae WHO F, liquid broth; read-out: Minimum Inhibitory Concentration, N. gonorrhoeae WHO F
Protocol: as §1

K. pneumoniae 848844 = assay: microbe, parasite or virus in culture; format: cell-based, Klebsiella pneumoniae; conditions: Klebsiella pneumoniae; K. pneumoniae 848844 producing SHV-11 and KPC-2; read-out: MIC K. pneumoniae 848844
Procedure, shortened: as §2

E. coli AG100 = assay: Broth microdilution MIC, E. coli AG100 (wild-type parent); format: cell-based; conditions: Escherichia coli; wild-type parent E. coli AG100, broth microdilution; read-out: MIC E. coli AG100
Procedure, shortened: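 Starting inoculum of 5×10^5 CFU/mL, from colonies grown 3-5 h in Mueller-Hinton broth with divalent cations, added to two-fold compound dilution series.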

E. coli PBP3 = E. coli PBP3 (Escherichia coli (strain K12), UniProt P0AD68); assay: E. coli PBP3 Bocillin-FL fluorescence polarization competition binding assay
Procedure, shortened: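 Steps: purified PBP (1.5 μM final) mixed with compound (0–1000 μM) in 50 mM Hepes pH 8.0, 300 mM NaCl, 5% glycerol; Bocillin-FL added to 0.1 μM; FP (ex 490, em 520 nm) followed for 60 min. Concentration reducing Bocillin-FL binding reported as EC50.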

N. gonorrhoeae FA1090 = assay: Liquid broth MIC, N. gonorrhoeae FA1090; format: cell-based; conditions: Neisseria gonorrhoeae; N. gonorrhoeae FA1090, liquid broth; read-out: Minimum Inhibitory Concentration, N. gonorrhoeae FA1090
Protocol: as §1

[2] = fluorescence polarization competition binding with Bocillin-FL, read-out: E. coli K12 PBP3 Potency

Chain of E. coli PBP3 (P0AD68 whole entry): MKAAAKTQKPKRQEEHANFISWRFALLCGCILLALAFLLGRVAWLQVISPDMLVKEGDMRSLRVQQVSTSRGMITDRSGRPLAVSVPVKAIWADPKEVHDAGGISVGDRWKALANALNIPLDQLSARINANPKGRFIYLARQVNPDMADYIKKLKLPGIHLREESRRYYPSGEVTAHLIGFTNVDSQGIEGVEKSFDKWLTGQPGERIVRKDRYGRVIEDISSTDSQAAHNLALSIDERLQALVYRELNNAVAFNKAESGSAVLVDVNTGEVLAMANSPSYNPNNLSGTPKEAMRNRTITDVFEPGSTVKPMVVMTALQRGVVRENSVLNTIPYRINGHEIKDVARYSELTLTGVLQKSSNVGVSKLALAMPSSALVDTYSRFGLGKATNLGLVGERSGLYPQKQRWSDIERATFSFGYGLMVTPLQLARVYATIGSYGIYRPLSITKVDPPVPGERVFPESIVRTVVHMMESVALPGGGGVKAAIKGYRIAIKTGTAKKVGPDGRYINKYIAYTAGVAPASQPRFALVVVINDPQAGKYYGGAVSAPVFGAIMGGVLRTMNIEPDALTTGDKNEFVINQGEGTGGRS

Row | Structure (SMILES) | MIC [1] [µg/mL] | MIC (E. coli 901C) [µg/mL] | MIC (K. pneumoniae UMM) [µg/mL] | MIC (K. pneumoniae SI-117) [µg/mL] | MIC (E. coli AG100A) [µg/mL] | MIC (E. coli D22) [µg/mL] | MIC (N. gonorrhoeae FA19) [µg/mL] | MIC (E. coli ATCC 25922) [µg/mL] | MIC (N. gonorrhoeae WHO F) [µg/mL] | MIC (K. pneumoniae 848844) [µg/mL] | MIC (E. coli AG100) [µg/mL] | EC50 (E. coli PBP3) [µM] | MIC (N. gonorrhoeae FA1090) [µg/mL] | EC50 (E. coli PBP3; [2]) [µM]
1 | CCN1CCN(C(=O)N[C@H](C(=O)N[C@H]2Cc3ccc(F)c(C(=O)O)c3OB2O)c2ccc(O)c(F)c2)C(=O)C1=O [Example 160, (R)-3-((S)-2-(4-ethyl-2,3-dioxopiperazine-1-carboxamido)-2-(3-fluoro-4-hydroxyphenyl)acetamido)-7-fluoro-2-hydroxy-3,4-dihydro-2H-benzo[e][1,2]oxaborinine-8-carboxylic acid] | 16 to 32 (≈ 28.6 to 57.1 µM) | 2 to 4 | > 128 | > 128 | > 128 | 32 to 64 | 16 to 32 (≈ 28.6 to 57.1 µM) | > 128 | 0.25 to 0.5 (≈ 0.446 to 0.892 µM) | > 128 | > 128 | 30 to 500 | 0.25 to 0.5 (≈ 0.446 to 0.892 µM) | –
2 | O=C(O)c1cccc2c1OB(O)[C@@H](NC(=O)C(NC(=O)N1CCN(CCF)C(=O)C1=O)c1ncc(O)cc1F)C2 (stereo partly drawn) [Example 179, (3R)-3-(2-(3-fluoro-5-hydroxypyridin-2-yl)-2-(4-(2-fluoroethyl)-2,3-dioxopiperazine-1-carboxamido)acetamido)-2-hydroxy-3,4-dihydro-2H-benzo[e][1,2]oxaborinine-8-carboxylic acid] | 0.25 to 0.5 (≈ 0.445 to 0.891 µM) | < 0.25 | 2 to 4 | 8 to 16 | 0.5 to 1 | 0.5 to 1 | 4 to 8 (≈ 7.13 to 14.3 µM) | 8 to 16 | < 0.125 | 32 to 64 | 8 to 16 | – | < 0.125 | < 30
3 | CCN1CCN(C(=O)NC(C(=O)N[C@H]2Cc3cccc(C(=O)O)c3OB2O)c2ccc(C(N)=O)cc2)C(=O)C1=O (stereo partly drawn) [Example 186, (3R)-3-(2-(4-carbamoylphenyl)-2-(4-ethyl-2,3-dioxopiperazine-1-carboxamido)acetamido)-2-hydroxy-3,4-dihydro-2H-benzo[e][1,2]oxaborinine-8-carboxylic acid] | 1 to 2 (≈ 1.81 to 3.63 µM) | < 0.25 | 32 to 64 | > 128 | 2 to 4 | 0.5 to 1 | 1 to 2 (≈ 1.81 to 3.63 µM) | 32 to 64 | < 0.125 | > 128 | 8 to 16 | 30 to 500 | < 0.125 | –
4 | NC(=O)c1ccc(C(NC(=O)N2CCN(CCF)C(=O)C2=O)C(=O)N[C@H]2Cc3cccc(C(=O)O)c3OB2O)cc1 (stereo partly drawn) [Example 187, (3R)-3-(2-(4-carbamoylphenyl)-2-(4-(2-fluoroethyl)-2,3-dioxopiperazine-1-carboxamido)acetamido)-2-hydroxy-3,4-dihydro-2H-benzo[e][1,2]oxaborinine-8-carboxylic acid] | 0.25 to 0.5 (≈ 0.439 to 0.878 µM) | < 0.25 | 32 to 64 | > 128 | 2 to 4 | 0.5 to 1 | 0.25 to 0.5 (≈ 0.439 to 0.878 µM) | 32 to 64 | < 0.125 | > 128 | 8 to 16 | 30 to 500 | < 0.125 | –
5 | CCN1C[C@H](C)N(C(=O)NC(C(=O)N[C@H]2Cc3cccc(C(=O)O)c3OB2O)c2ncc(O)cc2F)C(=O)C1=O (stereo partly drawn) [Example 192, (3R)-3-(2-((S)-4-ethyl-6-methyl-2,3-dioxopiperazine-1-carboxamido)-2-(3-fluoro-5-hydroxypyridin-2-yl)acetamido)-2-hydroxy-3,4-dihydro-2H-benzo[e][1,2]oxaborinine-8-carboxylic acid] | 1 to 2 (≈ 1.79 to 3.59 µM) | < 0.25 | 8 to 16 | 32 to 64 | 0.5 to 1 | 0.5 to 1 | 1 to 2 (≈ 1.79 to 3.59 µM) | 2 to 4 | < 0.125 | 32 to 64 | 8 to 16 | – | < 0.125 | < 30
6 | CCN1CCN(C(=O)NC(C(=O)N[C@H]2Cc3cccc(C(=O)O)c3OB2O)c2ncc(O)cn2)C(=O)C1=O (stereo partly drawn) [Example 202, (3R)-3-(2-(4-ethyl-2,3-dioxopiperazine-1-carboxamido)-2-(5-hydroxypyrimidin-2-yl)acetamido)-2-hydroxy-3,4-dihydro-2H-benzo[e][1,2]oxaborinine-8-carboxylic acid] | 4 to 8 (≈ 7.6 to 15.2 µM) | 0.5 to 1 | 32 to 64 | 32 to 64 | 2 to 4 | 8 to 16 | 4 to 8 (≈ 7.6 to 15.2 µM) | 32 to 64 | 0.25 to 0.5 (≈ 0.475 to 0.95 µM) | > 128 | 32 to 64 | 30 to 500 | 0.25 to 0.5 (≈ 0.475 to 0.95 µM) | –
7 | NS(=O)(=O)c1ccc(C(NC(=O)N2CCN(CCF)C(=O)C2=O)C(=O)N[C@H]2Cc3cccc(C(=O)O)c3OB2O)cc1F (stereo partly drawn) [Example 211, (3R)-3-(2-(3-fluoro-4-sulfamoylphenyl)-2-(4-(2-fluoroethyl)-2,3-dioxopiperazine-1-carboxamido)acetamido)-2-hydroxy-3,4-dihydro-2H-benzo[e][1,2]oxaborinine-8-carboxylic acid] | 4 to 8 (≈ 6.42 to 12.8 µM) | < 0.25 | 32 to 64 | > 128 | 2 to 4 | 2 to 4 | 4 to 8 (≈ 6.42 to 12.8 µM) | 32 to 64 | 0.25 to 0.5 (≈ 0.401 to 0.802 µM) | > 128 | 32 to 64 | 30 to 500 | 0.25 to 0.5 (≈ 0.401 to 0.802 µM) | –
8 | CCN1CCN(C(=O)NC(C(=O)N[C@H]2Cc3cccc(C(=O)O)c3OB2O)c2ncc(N)cc2F)C(=O)C1=O (stereo partly drawn) [Example 214, (3R)-3-(2-(5-amino-3-fluoropyridin-2-yl)-2-(4-ethyl-2,3-dioxopiperazine-1-carboxamido)acetamido)-2-hydroxy-3,4-dihydro-2H-benzo[e][1,2]oxaborinine-8-carboxylic acid] | 4 to 8 (≈ 7.38 to 14.8 µM) | 0.5 to 1 | 32 to 64 | 32 to 64 | 2 to 4 | 2 to 4 | 4 to 8 (≈ 7.38 to 14.8 µM) | 8 to 16 | < 0.125 | 32 to 64 | 32 to 64 | 30 to 500 | < 0.125 | –
9 | O=C(O)c1cccc2c1OB(O)[C@@H](NC(=O)C(NC(=O)N1C[C@@H]3CCCN3C(=O)C1=O)c1ncc(O)cc1F)C2 (stereo partly drawn) [Example 223, (3R)-3-(2-((S)-3,4-dioxooctahydropyrrolo[1,2-a]pyrazine-2-carboxamido)-2-(3-fluoro-5-hydroxypyridin-2-yl)acetamido)-2-hydroxy-3,4-dihydro-2H-benzo[e][1,2]oxaborinine-8-carboxylic acid] | > 64 | 8 to 16 | > 128 | > 128 | 32 to 64 | 32 to 64 | > 64 | > 128 | 1 to 2 (≈ 1.8 to 3.6 µM) | > 128 | > 128 | 30 to 500 | 1 to 2 (≈ 1.8 to 3.6 µM) | –

Reference: US12173018B2, “Penicillin-binding protein inhibitors” (priority 2018, dated 2024)
